Key:
[1] = target: T1, human CaSR (Homo sapiens, UniProt P41180); assay: Intracellular Ca2+ (fura-2, F/F0) in HEK293 cells stably expressing human CaSR; assay type: cell-based; details: HEK-CaSR; for CaSR activation (Ca2+i increase) by agonist: 300 nM poly-L-arginine, 1 mM spermine, 10 μg/ml ECP, no response in HEK-0
T1 construct: expressed in transfected cells; control HEK-0 with empty vector
T1 sequence (P41180 20-1078): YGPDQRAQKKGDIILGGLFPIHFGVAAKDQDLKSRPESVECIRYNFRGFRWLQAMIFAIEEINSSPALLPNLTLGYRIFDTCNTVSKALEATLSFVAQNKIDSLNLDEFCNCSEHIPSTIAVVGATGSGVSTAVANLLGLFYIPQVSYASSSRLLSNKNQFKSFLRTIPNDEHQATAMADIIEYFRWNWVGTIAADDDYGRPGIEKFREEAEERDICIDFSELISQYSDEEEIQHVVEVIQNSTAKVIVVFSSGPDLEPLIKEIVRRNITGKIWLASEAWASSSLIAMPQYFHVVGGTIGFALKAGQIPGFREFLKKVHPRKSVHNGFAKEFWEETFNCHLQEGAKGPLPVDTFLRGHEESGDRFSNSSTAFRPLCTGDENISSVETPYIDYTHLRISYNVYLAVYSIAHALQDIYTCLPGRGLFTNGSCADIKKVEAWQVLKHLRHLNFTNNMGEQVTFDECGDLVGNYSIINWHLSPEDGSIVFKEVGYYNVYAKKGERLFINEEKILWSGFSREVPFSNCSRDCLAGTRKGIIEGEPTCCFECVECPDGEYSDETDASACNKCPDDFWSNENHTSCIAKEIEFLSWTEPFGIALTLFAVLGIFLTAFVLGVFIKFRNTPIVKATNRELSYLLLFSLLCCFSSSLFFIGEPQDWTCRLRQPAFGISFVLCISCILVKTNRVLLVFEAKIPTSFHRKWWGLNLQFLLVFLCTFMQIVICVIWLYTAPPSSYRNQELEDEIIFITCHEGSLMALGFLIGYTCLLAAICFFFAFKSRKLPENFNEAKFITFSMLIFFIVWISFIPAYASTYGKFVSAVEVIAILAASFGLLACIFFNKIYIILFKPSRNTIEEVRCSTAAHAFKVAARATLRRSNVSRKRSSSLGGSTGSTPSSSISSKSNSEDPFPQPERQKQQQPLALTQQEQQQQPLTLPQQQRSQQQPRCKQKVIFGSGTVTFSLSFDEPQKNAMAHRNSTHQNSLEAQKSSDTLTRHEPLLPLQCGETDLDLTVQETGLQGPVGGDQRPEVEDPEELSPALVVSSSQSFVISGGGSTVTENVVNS
Method: The structurally unrelated calcilytic NPS2143 also prevents spermine-induced CaSR activation (D). […] Note that ECP serum concentrations in asthmatic subjects are believed to be 30 μg/ml. n=121-487 cells, 3-9 experiments. Data are mean±SEM. Where differences are significant, they are shown above the bars. FIG. 6. Ca^2+o activates the CaSR, an effect which can be prevented by the calcilytic NPS89636. HEK293 cells stably expressing the human CaSR (HEK-CaSR) or transfected with empty vector (HEK-0) were loaded with 4 μM fura-2 AM and exposed to 5 mM Ca^2+o in the absence or presence of the calcilytic, NPS89636 (100 nM). Data are from >3 experiments and 121-386 cells. Significant differences are shown above the bars. […] The ability of a structurally unrelated calcilytic, NPS2143 (1-10 μM), was also tested on spermine-induced Ca^2+i mobilisation in HEK-CaSR. Ca^2+i release was measured as peak/baseline fluorescence (F/F0). Note that ECP serum concentrations in asthmatic subjects increase with disease severity and are believed to reach 30 μg/ml.

[2] = target: T2, CaSR in human ASM cells (Homo sapiens, UniProt P41180); assay: Intracellular Ca2+ signalling (Fura-2) in primary human airway smooth muscle cells; assay type: cell-based; details: spermine 0.1-3 mM; ECPs 1-10 micrograms/ml
T2 construct: endogenous in cells; host or cells: primary human airway smooth muscle cells explanted from bronchial biopsies
T2 sequence (P41180 20-1078): T1 sequence (P41180 20-1078)
Method: Human ASM cells, loaded with Fura-2 AM, show elevation of [Ca^2+]i (F/F0) when exposed to increased [Ca^2+]o (A, n=7) or spermine (B, n=35; mean±SEM). […] In the presence of 5 mM [Ca^2+]o (saturating for CaSR, see A), the response to ECP, but not to BK, is ablated, consistent with CaSR activation by ECP. D), transfection of a “dominant negative” CaSR (CaSR DN) prevents spermine-dependent increase in [Ca^2+]i in human ASM cells, an effect which cannot be seen in MOCK-transfected cells.
Effects of Polycations in Human ASM Cells In Vitro
Once primary human airway smooth muscle cells cell cultures were established at 80-90% confluence using the protocol described above, the endogenous CaSR was activated by exposing these cells to pathophysiologically relevant concentrations of ECPs (1-10 micrograms/ml), spermine (0.1-3 mM) and Ca^2+o (1-5 mM) to determine the effects on intracellular Ca^2+i signalling (using the Ca^2+-sensitive fluorescent dye, Fura-2).

[3] = tested on: mouse intralobular bronchi; details: 300 μM spermine, 15 min pre-treatment
Method: A. Intralobular bronchi were dissected from wild type C57/Bl6 mice (3-4 month of age), mounted upon a wire myograph and bubbled with 95% O2/5% CO2 in the presence of an extracellular solution containing 1 mM Ca^2+o. […] Data are mean±SEM, n=3. B. Intralobular bronchi were dissected from wild type (sm22α-Cre^−/−/floxed-CaSR^+/+) and CaSR knockout (sm22α-Cre^+/+/floxed-CaSR^+/+) mice and were then mounted on a wire myograph, as described in (A). […] Percentage of contraction (upwards deflection from zero of the relaxation curve) or relaxation (downwards deflection from zero of the relaxation curve) were calculated from the tension data. Data are mean±SEM, n=3 per genotype. […] Second/third order intralobular bronchi were dissected from the lung left lobes of WT or KO mice, mounted in small vessel myograph using stainless steel wires (d=40 micrometers) and maintained in a Krebs solution bubbled with 95% O2/5% CO2. Bronchi were left to settle at 37° C. for 30 min, then they were gradually stretched to reach 2 mN of passive tension. After 30 min equilibration time, reactivity of the bronchi was tested by addition of 40 mM KCl to the bath. […] Data are shown as mean±SEM percentage of contraction normalized to the maximal contraction in control. […] Bronchi were left to settle at 37° C. for 30 min, then they were gradually stretched to reach 2 mN of passive tension. […]

[4] = tested on: mouse intralobular bronchi; details: spermine 10 μM-3 mM cumulative, ACh-precontracted to ~50% tone
Method: A. Intralobular bronchi were dissected from wild type C57/Bl6 mice (3-4 month of age), mounted upon a wire myograph and bubbled with 95% O2/5% CO2 in the presence of an extracellular solution containing 1 mM Ca^2+o. […] Data are mean±SEM, n=3. B. Intralobular bronchi were dissected from wild type (sm22α-Cre^−/−/floxed-CaSR^+/+) and CaSR knockout (sm22α-Cre^+/+/floxed-CaSR^+/+) mice and were then mounted on a wire myograph, as described in (A). […] Percentage of contraction (upwards deflection from zero of the relaxation curve) or relaxation (downwards deflection from zero of the relaxation curve) were calculated from the tension data. Data are mean±SEM, n=3 per genotype. […] Second/third order intralobular bronchi were dissected from the lung left lobe of WT or CaSR KO mice, mounted in small vessel myograph using stainless steel wires (d=40 micrometers) in a Krebs' solution bubbled with 95% O2/5% CO2. Bronchi were left to settle at 37° C. for 30 min, then gradually stretched to reach 2 mN of passive tension. After 30 min of equilibration time, the reactivity of the bronchi was tested by addition of 40 mM KCl to the bath. […] Data are shown as mean±SEM percentage change from baseline, where upwards deflection from zero represents contraction, whilst downwards deflection from zero of the relaxation curve represents relaxation. […] WT: n=6; KO: n=7. *p<0.05; **p<0.01.

[5] = tested on: BalbC mice; assay: Polycation-induced bronchial hyper-reactivity (Penh, plethysmography) in methacholine-challenged conscious mice; assay type: in vivo, mouse; details: nebulised poly-L-arginine 3 μM, 1 hour; conscious BalbC mice
Method: FIG. 5. […] prevent polycation-evoked BHR in methacholine-challenged mice. […] After the treatment, animals were placed in plethysmography chambers (Buxco, USA), allowed to settle for 10 minutes, and then they were challenged with methacholine (MCh, 0.1-10 mg/ml). Responses to methacholine obtained from the animals that have not received any treatments are shown in black symbols. From our previous estimates, 1-5% of the nebulised drug reaches the lung epithelium. […] FIG. 12. […] Male BalbC mice ( 25 g) were purchased from Harlan 1 week before the experimental protocols were performed. […] On the day of the experiment, the body weight of each mouse was recorded and mice were allowed to acclimatise to the chamber for at least 10 min before recordings were made. Then, respiratory activity was recorded for 5 min, to establish baseline value for Penh. […] Data were recorded for 3 minutes after each aerosol administration. The Penh values at each MCh concentration were averaged and expressed as a proportion of baseline Penh (Penh before treatment). […] The Penh values at each MCh concentration were averaged and expressed as a proportion of that day's baseline Penh (Penh after treatment). […] Effect of Polycations and of the Calcilytic NPS89636 on Bronchial Hyper-Reactivity in Unrestrained, Conscious Mice In Vivo Baseline airway hyper-responsiveness was measured by plethysmography. […]

For `CC(C)(Cc1ccc2ccccc2c1)NC[C@@H](O)COc1cccc(Cl)c1C#N.Cl` [NPS2143, reference compound], which “Effect of calcilytic on spermine-induced CaSR activation (Ca2+i mobilisation)” value ([1]; 1-10 μM calcilytic) is on record?
The value was “prevented CaSR activation by spermine”.

`NCCCNCCCCNCCCN` [spermine] was tested. Which “CaSR activation (Ca2+i increase) by agonist” value [1] did it give?
The value was “responds”.

What about the “Increase in Ca2+i evoked by agonist in human ASM cells” value [2] of the same molecule?
Its value is “evoke increases in Ca^2+i”.

What about the “Effect on ACh-induced contraction, CaSR KO bronchi” value ([3]; CaSR knock-out mice) of the same molecule?
The value was “not seen”.

What about the “Effect on ACh-induced contraction, WT bronchi” value ([3]; wild-type mice) of the same molecule?
Its value is “increases the response to acetylcholine-mediated contraction”.

And the “Direct bronchoconstriction, CaSR KO bronchi” value ([4]; knock-out mice)?
Its value is “not in the intralobular bronchi of knock-out mice”.

What about the “Direct bronchoconstriction, WT bronchi” value ([4]; wild-type mice) of the same molecule?
Its value is “directly evokes bronchoconstriction”.

Which results are given for poly-L-arginine [reference compound]?
CaSR activation (Ca2+i increase) by agonist [1]: responds; Effect on response to methacholine (Penh) [5]: significantly enhanced

B1: ECPs: eosinophil cationic protein, novel agonist at the human CaSR (protein, UniProt P12724 28-160, looked up)
Eosinophil cationic protein: RPPQFTRAQWFAIQHISLNPPRCTIAMRAINNYRWRCKNQNTFLRTTFANVVNVCGNQSIRCPHNRTLNNCHRSRFRVPLLHCDLINPGAQNISNCTYADRPGRRFYVVACDNRDPRDSPRYPVVPVHLDTTI
For B1, which “CaSR activation (Ca2+i increase) by agonist” value [1] is on record?
Its value is “agonists at the CaSR”.

And the “Increase in Ca2+i evoked by agonist in human ASM cells” value [2]?
The value was “evoke increases in Ca^2+i”.

From patent US9861606B2, “Therapeutic for treating inflammatory lung disorders” (University College Cardiff Consultants Limited, priority 2012, dated 2018)
